The values below come from patent US6436960B1, “Farnesyl transferase inhibitors having a piperidine structure and process for preparation thereof” (LG Chemical Ltd., priority 1998, dated 2002).

Each structure is given as a SMILES string. Bounds are passed on as bounds.

The target of assay [1] is T1, Ras farnesyl transferase (Homo sapiens, UniProt P49354+P49356).
T1 construct: made in house
Description: in vitro inhibitory activity for Ras farnesyl transferase, H-Ras substrate. Type of assay: biochemical. The note with it: recombinant Ras farnesyl transferase, H-Ras substrate, tritium-farnesylpyrophosphate, 30 minutes at 37° C.; read-out: H-Ras IC50. The method, then: In the present experiment, Ras farnesyl transferase produced by genetic recombination techniques according to the improved Pompliano's method (Pompliano et al., Biochemistry, 1992, 31, 3800) was used, and Ras substrate(Ras-CVLS) protein described in Korean Patent Appln. No. 97-14409 was used after it has been purified according to the known method(see, Chung et al., Biochimica et Biophysica Acta, 1992, 278, 1129).
(§1) The enzyme reaction was performed in 50 μl of 50 mM Soduam HEPES buffer solution containing 25 mM of potassium chloride, 25 mM of magnesium chloride, 10 mM of DTT and 50 μM of zinc chloride. 1.5 μM of Ras substrate protein, 0.15 μM of tritium-farnesylpyrophosphate and 4.5 nM of farnesyl transferase were used.
(§2) More specifically, in the initial step, farnesyl transferase was added to the above buffer solution, reaction was maintained for 30 minutes at 37° C. and then the reaction was stopped by adding 1 ml of ethanol solution containing 1M HCl. The formed precipitates were adsorbed to GF/B filter using Hopper harvestor(Hopper #FH 225V) for filter-binding, washed with ethanol, and then radioactivity of the dried filter was measured using LKB β counter. Enzyme titer was measured in the unsaturated state of substrate where the concentrations of Ras substrate protein and farnesyl transferase have quantitative relationship. The compound according to the present invention dissolved in dimethyl sulfoxide(DMSO) was added to the reaction solution in an amount of less than 5% of the total reaction solution, and then the enzyme inhibitory activity thereof was measured. The enzyme inhibitory activity was represented by percentage of the amount of farnesyl incorporated into the Ras substrate protein in the presence of the test compound to that in the absence of the test compound. IC50 of the test compound was defined as the concentration at which 50% of the enzyme activity was inhibited.

Assay [2] addresses T1, Ras farnesyl transferase. Description: in vitro inhibitory activity for Ras farnesyl transferase, K-Ras substrate. Particulars: recombinant Ras farnesyl transferase, K-Ras substrate; read-out: K-Ras IC50. Type of assay: biochemical. As to the method:
In the present experiment, Ras farnesyl transferase produced by genetic recombination techniques according to the improved Pompliano's method (Pompliano et al., Biochemistry, 1992, 31, 3800) was used, […] Appln. No. 97-14409 was used after it has been purified according to the known method(see, Chung et al., Biochimica et Biophysica Acta, 1992, 278, 1129).
as §1, §2

Assay [3] concerns the target T2, Ras farnesyl transferase (Rattus norvegicus, UniProt Q02293+Q04631).
T2 construct: endogenous in cells; host or cells: Rat2 fibroblasts transformed with C-Harvey-Ras, or with H-Ras carrying the K-Ras C-terminal polybasic lysine domain
Description: in vivo (cellular) Ras farnesyl transferase inhibitory activity, Rat2 cells expressing C-Harvey-Ras. Type of assay: cell-based. The note with it: Rat2 cell line expressing C-Harvey-Ras; concentration inhibiting 50% of farnesyl binding of Ras protein; read-out: H-Ras CIC50. As to the method:
(§3) In the present experiment, Rat2 cell line which expresses C-Harvey-Ras protein having transforming activity and Rat2 cell line(Korean patent application No. 97-14409) which is transformed with fused protein of H-Ras substituted with polybasic lysine domain at C-terminus of K-Ras were used. The experiment was performed by the modified Declue's method(Declue. J. E. et al., Cancer Research, 1991, 51, 712). Hereinafter, the experimental method will be described in more detail.
(§4) 3×10^5 cells of transformed Rat2 fibroblast cell line were sprayed on 60 mm cell cultivation dish and cultivated for 48 hours in a cell incubator at 37° C. and after 50% or more of density was reached, it was treated with the test compounds. The compound according to the present invention dissolved in dimethylsulfoxide(DMSO) was used. 1% concentration of dimethylsulfoxide was used in both control and test groups. After 4 hours from the treatment with the compound, methionine labeled with 150 μCi of radioactive isotope [^35S] per 1 ml of medium was added and after cultivating for 20 hours, the cells were washed with physiological saline water. The cells were lysed using 1 ml of cold cell lysis buffer solution(50 mM of Sodium HEPES buffer solution containing 5 mM of magnesium chloride, 1 mM of DTT, 1% NP 40, 1 mM of EDTA, 1 mM of PMSF, 2 μM of leupeptin, 2 μM of pepstatin A and 2 μM of antipain) and the supernatant wherein the cells were lysed was obtained by high-velocity centrifugation of 12,000 g×5 minutes. The amount of radioisotope in the supernatant was measured and standardized to obtain a quantitative result in immunoprecipitation reaction and then, Y13-259, a monoclonal antiboby specifically binding to Ras protein(Furth, M. E. et al., J. Virol, 1982, 43, 294) was added and reacted for 15 hours at 4° C. Protein A(combined with goat anti-murine imunoglobulin antibody)-agarose suspension was added to the solution and reacted for 1 hour at 4° C. and then, to remove the unspecific binding product, immunoprecipitates were washed with a buffer solution (50 mM Tris chloride buffer solution containing 50 mM of sodium chloride, 0.5% of sodium dioxycholate, 0.5% of NP 40 and 0.1% of SDS). The precipitates were added to a buffer solution for electrophoresis and boiled and then, electrophoresis was performed using 13.5% of SDS polyacrylamide gel. After electrophoresis, the gel was fixed and dried. Then, the gel was exposed to X-ray film, developed and printed. From the result of the experiment, intensities of band of protein combined with or without farnesyl of Ras protein were measured, and the concentration of the test compound inhibiting 50% of farnesyl binding was defined as CIC50, an in vivo Ras farnesyl transferase inhibitory activity.

Assay [4] deals with T2, Ras farnesyl transferase. The experiment in a line: in vivo (cellular) Ras farnesyl transferase inhibitory activity, Rat2 cells transformed with H-Ras fused with polybasic lysine domain of K-Ras. It is filed as cell-based. The note with it: Rat2 cell line transformed with H-Ras substituted with polybasic lysine domain at C-terminus of K-Ras; concentration inhibiting 50% of farnesyl binding; read-out: K-Ras CIC50. As to the method: as §3, §4

On to `CN(C)CCN(C)C(=O)c1cn(Cc2cncn2CC2CCN(C(=O)OCc3ccccc3)CC2)cc1-c1cccc2ccccc12` [Compound 39, 1-[1-(-Benzyloxycarbonylpiperidin-4-yl)methyl-1H-imidazol-5-yl]methyl-3-{N-[2-(N,N-dimethylamino)ethyl]-N-methyl}carbamoyl-4-(naphthalen-1-yl)-1H-pyrrole], for which the IC50 on Ras farnesyl transferase [1] is 0.3 µM; at Ras farnesyl transferase [2], 1.5 µM; on Ras farnesyl transferase [3] it was 1 µM; on Ras farnesyl transferase [4] it was 30 to 100 µM.
The corresponding values for `COCCN(C)C(=O)c1cn(Cc2cncn2CC2CCN(C(=O)OCc3cccc4ccccc34)CC2)cc1-c1cccc2ccccc12` [Compound 19, 3-[N-(2-Methoxyethyl)-N-methyl]carbamoyl-4-(naphthalen-1-yl)-1-{1-[1-(1-naphthalen-1-ylmethyloxycarbonyl)piperidin-4-ylmethyl]-1H-imidazol-5-ylmethyl}-1H-pyrrole] are 0.007 µM, 0.02 µM, 0.01 µM and 1 to 10 µM.
Take `CCCCNC(=O)N1CCC(Cn2cncc2Cn2cc(C(=O)N(C)CCOC)c(-c3cccc4ccccc34)c2)CC1` [Compound 10, 1-{1-[1-(N-Butylcarbamoyl)-piperidin-4-ylmethyl]-1H-imidazol-5-ylmethyl}-3[N-(2-methoxyethyl)-N-methyl]carbamoyl-4-(naphthalen-1-yl)-1H-pyrrole]: the IC50 at Ras farnesyl transferase [1] lay within 0.001 to 0.01 µM; on Ras farnesyl transferase [2] it was 0.01 to 1 µM; at Ras farnesyl transferase [3] it was 0.01 to 0.1 µM; on Ras farnesyl transferase [4] it was 1 to 50 µM.
The corresponding values for `COCCN(C)C(=O)c1cn(Cc2cncn2CC2CCNCC2)cc1-c1cccc2ccccc12` [Compound 6, 3-[N-(2-Methoxyethyl)-N-methyl]carbamoyl-4-(naphthalen-1-yl)-1-[1-(piperidin-4-ylmethyl)-1H-imidazol-5-ylmethyl]-1H-pyrrole] are 0.008 µM, 0.01 to 1 µM, 0.01 to 0.1 µM and 1 to 10 µM.
In the same order, the values of `O=C(c1cn(Cc2cncn2CC2CCNCC2)cc1-c1cccc2ccccc12)N1CCOCC1` [Compound 2] are 0.009 µM, 6 µM, 0.1 µM and 10 to 100 µM.
In the same order, the values of `COCCN(C)C(=O)c1cn(Cc2cncn2CC2CCN(C(=O)/C=C/c3ccccc3)CC2)cc1-c1cccc2ccccc12` [Compound 28] are 0.012 µM, 0.008 µM, 0.01 to 0.1 µM and 1 to 10 µM.
Regarding `COCCN(C)C(=O)c1cn(Cc2cncn2CC2CCN(C(=O)NCc3ccccc3)CC2)cc1-c1cccc2ccccc12` [Compound 9, 1-{1-[1-(N-Benzylcarbamoyl)-piperidin-4-ylmethyl]-1H-imidazol-5-ylmethyl}-3-[N-(2-methoxyethyl)-N-methyl]carbamoyl(naphthalen-1-yl)-1H-pyrrole], the IC50 at Ras farnesyl transferase [1] fell in the range of 0.001 to 0.01 µM; at Ras farnesyl transferase [2] it was 0.01 to 1 µM; at Ras farnesyl transferase [3] it was 0.01 to 0.1 µM; at Ras farnesyl transferase [4] it was 1 to 50 µM.
The corresponding values for `COCCN(C)C(=O)c1cn(Cc2cncn2CC2CCN(C(=O)COc3ccccc3)CC2)cc1-c1cccc2ccccc12` [Compound 14, 3-[N-(2-Methoxyethyl)-N-methyl]carbamoyl-4-(naphthalen-1-yl)-1-[1-(1-phenoxyacetyl-piperidin-4-ylmethyl)-1H-imidazol-5-ylmethyl]-1H-pyrrole] are 0.0021 µM, 0.01 to 1 µM, 0.01 to 0.1 µM and 1 to 50 µM.
In the same order, the values of `CN1CCN(C(=O)c2cn(Cc3cncn3CC3CCN(C(=O)/C=C/c4ccccc4)CC3)cc2-c2cccc3ccccc23)CC1` [Compound 50] are 0.0017 µM, 0.008 µM, 0.03 µM and 10 to 50 µM.
In the same order, the values of `COCCN(C)C(=O)c1cn(Cc2cncn2CC2CCN(C(=O)N3CCc4ccccc4C3)CC2)cc1-c1cccc2ccccc12` [Compound 32, 3-[N-(2-Methoxyethyl)N-methyl]carbamoyl-4-(naphthalen-1-yl)-1-{1-[1-(1,2,3,4-tetrahydroisoquinolin-2-ylcarbonyl)piperidin-4-ylmethyl]-1H-imidazol-5-ylmethyl}-1H-pyrrole] are 0.002 µM, 0.012 µM, 0.01 to 0.1 µM and 1 to 10 µM.
As for `CN1CCN(C(=O)c2cn(Cc3cncn3CC3CCN(C(=O)N4CCCc5ccccc54)CC3)cc2-c2cccc3ccccc23)CC1` [Compound 54, 3-(4-Methylpiperazin-1-yl)carbonyl-4-(naphthalen-1-yl)-1-{1-[1-(1,2,3,4-tetrahydroquinolin-1-ylcarbonyl)piperidin-4-yl]methyl-1H-imidazol-5-yl}methyl-1H-pyrrole], the IC50 is 0.011 µM on Ras farnesyl transferase [1], 0.04 µM at Ras farnesyl transferase [2], 0.025 µM at Ras farnesyl transferase [3] and 10 to 50 µM on Ras farnesyl transferase [4].
For the molecule `COCCN(C)C(=O)c1cn(Cc2cncn2CC2CCN(C(=O)OC/C=C/c3ccccc3)CC2)cc1-c1cccc2ccccc12` [Compound 25], the IC50 on Ras farnesyl transferase [1] is 0.006 µM; on Ras farnesyl transferase [2], 0.027 µM; at Ras farnesyl transferase [3] it was less than 0.1 µM; at Ras farnesyl transferase [4] it was 1 to 10 µM.
For the molecule `COCCN(C)C(=O)c1cn(Cc2cncn2CC2CCN(C(=O)OC)CC2)cc1-c1cccc2ccccc12` [Compound 17, 1-[1-(1-Methoxycarbonyl-piperidin-4-ylmethyl)-1H-imidazol-5-ylmethyl]-3[N-(2-methoxyethyl)-N-methyl]carbamoyl-4-(naphthalen-1-yl)-1H-pyrrole], the IC50 lay in the range of 0.001 to 0.01 µM on Ras farnesyl transferase [1], 0.01 to 1 µM on Ras farnesyl transferase [2], 0.01 to 0.1 µM at Ras farnesyl transferase [3] and 10 to 100 µM at Ras farnesyl transferase [4].
The corresponding values for `O=C(OCc1ccccc1)N1CCC(Cn2cncc2Cn2cc(C(=O)N3CCOCC3)c(-c3cccc4ccccc34)c2)CC1` [Compound 1, 1-[1-(1-Benzyloxycarbonyl-piperidin-4-ylmethyl)-1H-imidazol-5-ylmethyl]-3-(morpholin-4-yl)carbonyl-4-(naphthalen-1-yl)-1H-pyrrole] are 0.0085 µM, 2.4 µM, 0.1 µM and 1 to 10 µM.
